Experimental data taken from ChEMBL document CHEMBL1121514, “6-(Phenylthio)-substituted 2,3,4,5-tetrahydro-1H-3-benzazepines, a novel class of dopamine receptor antagonists and neuroleptics” (J Med Chem, 1980).

Legend:
[1] = target: Adenylate cyclase; experiment: Inhibitory concentration against Dopamine sensitive adenylate cyclase in rats; assay type: functional
[2] = system: Rattus norvegicus; experiment: Effective Dose for avoidance acquisition in naive rats when administered intraperitoneal; assay type: functional; settings: ip
[3] = system: Rattus norvegicus; experiment: Effective Dose for catalepsy production in naive rats when administered intraperitoneal; assay type: functional; settings: ip
[4] = target: Adenylate cyclase; experiment: Inhibitory activity against Dopamine sensitive adenylate cyclase in rats
[5] = system: Canis lupus familiaris; experiment: % Change in renal vascular resistance in dogs when administered at dose 3 ug/kg intravenously
[6] = system: Canis lupus familiaris; experiment: % Change in renal vascular resistance in dogs when administered at dose 15 ug/kg intravenously

| Compound | IC50 [1] [nM] | ED50 [2] [mg/kg] | ED50 [3] [mg/kg] | Ki [4] [nM] | Change [5] [%] | Change [6] [%] |
| --- | --- | --- | --- | --- | --- | --- |
| CN1CCc2c(Cl)c(O)c(O)c(Sc3ccccc3)c2CC1 | 360 | 0.08 | 3 | 33 |  |  |
| Br.Oc1cc2c(c(Sc3ccccc3)c1O)CCNCC2 | 2700 | 4.9 | 64.6 | 250 |  |  |
| Br.CN1CCc2cc(O)c(O)c(Sc3ccccc3)c2CC1 | 240 | 0.5 | 5.6 | 22 |  |  |
| CN(C)CCCN1c2ccccc2Sc2ccc(Cl)cc21 [CHLORPROMAZINE] | 1300 | 1.5 | 4.2 | 118 |  |  |
| NCCc1ccc(O)c(O)c1 [DOPAMINE] |  |  |  |  | 8 |  |
| H-RPPGFSPFR-OH [BRADYKININ] |  |  |  |  | -19 | -37 |
